{"source": "paper PMC7026418", "about": "“The kinase polypharmacology landscape of clinical PARP inhibitors” (Scientific Reports, 2020)", "assay_in_all_cases": "biochemical", "set-up_in_all_cases": "DiscoveRx KINOMEscan active site-directed competition binding; percent of control kinase bound to immobilised ligand", "key": {"TSSK1B": {"target": "T1, TSSK1B (Homo sapiens, UniProt Q9BXA7)", "T1 sequence (Q9BXA7 1-367)": "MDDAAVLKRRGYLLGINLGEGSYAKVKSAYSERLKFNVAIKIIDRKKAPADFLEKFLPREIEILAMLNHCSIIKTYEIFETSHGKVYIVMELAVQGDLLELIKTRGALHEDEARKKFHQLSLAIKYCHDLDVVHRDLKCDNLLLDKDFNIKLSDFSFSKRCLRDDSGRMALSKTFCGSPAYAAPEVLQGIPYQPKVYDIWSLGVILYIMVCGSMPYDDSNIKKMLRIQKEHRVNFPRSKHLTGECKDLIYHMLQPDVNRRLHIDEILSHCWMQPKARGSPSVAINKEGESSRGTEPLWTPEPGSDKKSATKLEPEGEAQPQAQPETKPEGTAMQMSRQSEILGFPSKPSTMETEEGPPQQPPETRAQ"}, "PRKCQ": {"target": "PRKCQ (Homo sapiens, UniProt Q04759)", "sequence (Q04759 whole entry)": "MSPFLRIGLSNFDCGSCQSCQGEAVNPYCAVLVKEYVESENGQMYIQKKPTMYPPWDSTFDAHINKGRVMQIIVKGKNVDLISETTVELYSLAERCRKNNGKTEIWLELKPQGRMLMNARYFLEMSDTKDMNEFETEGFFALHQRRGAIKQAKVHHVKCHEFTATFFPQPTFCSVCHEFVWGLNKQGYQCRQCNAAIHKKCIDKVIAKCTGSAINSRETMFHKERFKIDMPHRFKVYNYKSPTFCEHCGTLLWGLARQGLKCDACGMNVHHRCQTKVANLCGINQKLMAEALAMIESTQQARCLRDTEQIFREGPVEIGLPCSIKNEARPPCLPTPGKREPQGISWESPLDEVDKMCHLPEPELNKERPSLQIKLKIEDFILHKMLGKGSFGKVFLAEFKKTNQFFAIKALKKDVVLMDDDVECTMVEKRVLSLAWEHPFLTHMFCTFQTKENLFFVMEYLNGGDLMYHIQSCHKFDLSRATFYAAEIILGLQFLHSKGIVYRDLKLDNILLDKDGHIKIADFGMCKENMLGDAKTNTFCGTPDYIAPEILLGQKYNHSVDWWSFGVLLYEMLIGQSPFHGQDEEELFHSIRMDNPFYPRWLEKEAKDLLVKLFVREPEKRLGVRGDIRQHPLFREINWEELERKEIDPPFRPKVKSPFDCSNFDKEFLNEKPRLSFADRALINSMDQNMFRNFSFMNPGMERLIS"}, "PHKG2": {"target": "T2, PHKG2 (Homo sapiens, UniProt P15735)", "T2 sequence (P15735 1-406)": "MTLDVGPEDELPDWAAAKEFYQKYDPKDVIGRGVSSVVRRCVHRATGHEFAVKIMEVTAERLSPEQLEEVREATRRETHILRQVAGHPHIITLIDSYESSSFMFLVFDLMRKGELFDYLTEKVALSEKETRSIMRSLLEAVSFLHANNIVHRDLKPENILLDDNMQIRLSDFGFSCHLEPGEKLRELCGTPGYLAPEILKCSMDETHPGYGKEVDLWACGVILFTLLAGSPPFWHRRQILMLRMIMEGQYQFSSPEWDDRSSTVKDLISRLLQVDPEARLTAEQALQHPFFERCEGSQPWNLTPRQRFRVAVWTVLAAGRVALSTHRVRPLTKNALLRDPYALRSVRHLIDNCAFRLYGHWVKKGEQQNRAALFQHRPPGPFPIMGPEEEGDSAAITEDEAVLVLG"}, "ROS1": {"target": "ROS1 (Homo sapiens, UniProt P08922)", "sequence (P08922 whole entry)": "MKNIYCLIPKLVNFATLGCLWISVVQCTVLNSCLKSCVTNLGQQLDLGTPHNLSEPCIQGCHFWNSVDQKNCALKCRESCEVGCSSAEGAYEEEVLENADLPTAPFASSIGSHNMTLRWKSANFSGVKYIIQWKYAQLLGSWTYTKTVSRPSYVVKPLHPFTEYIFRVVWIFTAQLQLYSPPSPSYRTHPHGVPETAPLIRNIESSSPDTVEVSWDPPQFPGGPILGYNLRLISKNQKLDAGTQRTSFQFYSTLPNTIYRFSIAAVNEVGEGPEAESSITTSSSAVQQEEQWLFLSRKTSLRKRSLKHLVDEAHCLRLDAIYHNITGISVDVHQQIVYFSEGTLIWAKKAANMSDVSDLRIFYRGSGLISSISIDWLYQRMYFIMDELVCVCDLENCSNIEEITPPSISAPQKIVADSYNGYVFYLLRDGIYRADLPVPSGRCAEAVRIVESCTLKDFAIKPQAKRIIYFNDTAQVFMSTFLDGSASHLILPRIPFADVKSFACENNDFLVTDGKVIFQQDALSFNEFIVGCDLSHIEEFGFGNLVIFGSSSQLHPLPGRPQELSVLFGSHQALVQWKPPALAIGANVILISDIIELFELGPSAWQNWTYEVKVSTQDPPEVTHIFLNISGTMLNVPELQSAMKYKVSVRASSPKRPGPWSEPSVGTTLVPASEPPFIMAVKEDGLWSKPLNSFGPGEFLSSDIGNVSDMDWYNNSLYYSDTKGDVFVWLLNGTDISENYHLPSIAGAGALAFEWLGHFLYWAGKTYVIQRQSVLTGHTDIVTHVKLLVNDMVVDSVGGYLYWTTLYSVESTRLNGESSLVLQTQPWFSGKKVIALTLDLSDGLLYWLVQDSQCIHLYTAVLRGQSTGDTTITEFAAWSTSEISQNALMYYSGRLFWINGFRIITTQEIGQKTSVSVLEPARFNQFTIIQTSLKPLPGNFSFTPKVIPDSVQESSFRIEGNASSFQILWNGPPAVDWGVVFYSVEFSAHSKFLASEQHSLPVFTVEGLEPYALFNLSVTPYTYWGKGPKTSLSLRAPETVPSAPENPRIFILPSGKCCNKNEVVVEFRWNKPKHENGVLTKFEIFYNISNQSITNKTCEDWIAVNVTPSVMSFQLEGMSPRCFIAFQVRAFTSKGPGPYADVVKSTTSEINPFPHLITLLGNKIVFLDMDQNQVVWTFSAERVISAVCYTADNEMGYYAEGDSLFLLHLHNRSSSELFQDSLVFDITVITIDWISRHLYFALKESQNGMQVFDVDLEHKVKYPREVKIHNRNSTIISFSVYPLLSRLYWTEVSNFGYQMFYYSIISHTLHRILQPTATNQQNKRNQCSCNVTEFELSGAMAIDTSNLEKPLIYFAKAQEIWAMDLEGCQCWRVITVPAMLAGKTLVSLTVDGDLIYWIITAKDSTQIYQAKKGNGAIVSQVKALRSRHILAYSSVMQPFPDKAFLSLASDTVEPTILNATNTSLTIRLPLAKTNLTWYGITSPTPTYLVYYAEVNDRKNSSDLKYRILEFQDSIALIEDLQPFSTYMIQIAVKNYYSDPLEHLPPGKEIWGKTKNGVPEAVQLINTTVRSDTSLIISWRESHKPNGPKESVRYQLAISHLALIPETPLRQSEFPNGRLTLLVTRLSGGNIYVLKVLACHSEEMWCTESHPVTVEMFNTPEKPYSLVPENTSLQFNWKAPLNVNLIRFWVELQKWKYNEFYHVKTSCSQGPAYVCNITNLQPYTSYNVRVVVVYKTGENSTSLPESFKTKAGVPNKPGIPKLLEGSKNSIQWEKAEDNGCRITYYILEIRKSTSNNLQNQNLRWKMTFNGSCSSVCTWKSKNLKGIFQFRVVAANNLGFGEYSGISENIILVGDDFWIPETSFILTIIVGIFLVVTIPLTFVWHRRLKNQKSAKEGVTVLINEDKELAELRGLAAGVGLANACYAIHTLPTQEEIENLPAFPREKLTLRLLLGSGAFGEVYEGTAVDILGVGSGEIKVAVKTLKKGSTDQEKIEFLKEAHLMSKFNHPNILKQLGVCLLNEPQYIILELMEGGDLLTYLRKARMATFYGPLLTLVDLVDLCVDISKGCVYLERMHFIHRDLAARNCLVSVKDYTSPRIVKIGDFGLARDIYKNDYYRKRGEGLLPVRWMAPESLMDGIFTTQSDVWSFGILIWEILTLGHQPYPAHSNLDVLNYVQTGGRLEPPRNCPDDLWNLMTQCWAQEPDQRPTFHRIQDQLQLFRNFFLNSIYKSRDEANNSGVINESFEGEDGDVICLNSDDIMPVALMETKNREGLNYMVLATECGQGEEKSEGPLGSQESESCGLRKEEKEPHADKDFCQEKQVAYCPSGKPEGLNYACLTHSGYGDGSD"}, "EPHA8": {"target": "T3, EPHA8 (Homo sapiens, UniProt P29322)", "T3 sequence (P29322 1-1005)": "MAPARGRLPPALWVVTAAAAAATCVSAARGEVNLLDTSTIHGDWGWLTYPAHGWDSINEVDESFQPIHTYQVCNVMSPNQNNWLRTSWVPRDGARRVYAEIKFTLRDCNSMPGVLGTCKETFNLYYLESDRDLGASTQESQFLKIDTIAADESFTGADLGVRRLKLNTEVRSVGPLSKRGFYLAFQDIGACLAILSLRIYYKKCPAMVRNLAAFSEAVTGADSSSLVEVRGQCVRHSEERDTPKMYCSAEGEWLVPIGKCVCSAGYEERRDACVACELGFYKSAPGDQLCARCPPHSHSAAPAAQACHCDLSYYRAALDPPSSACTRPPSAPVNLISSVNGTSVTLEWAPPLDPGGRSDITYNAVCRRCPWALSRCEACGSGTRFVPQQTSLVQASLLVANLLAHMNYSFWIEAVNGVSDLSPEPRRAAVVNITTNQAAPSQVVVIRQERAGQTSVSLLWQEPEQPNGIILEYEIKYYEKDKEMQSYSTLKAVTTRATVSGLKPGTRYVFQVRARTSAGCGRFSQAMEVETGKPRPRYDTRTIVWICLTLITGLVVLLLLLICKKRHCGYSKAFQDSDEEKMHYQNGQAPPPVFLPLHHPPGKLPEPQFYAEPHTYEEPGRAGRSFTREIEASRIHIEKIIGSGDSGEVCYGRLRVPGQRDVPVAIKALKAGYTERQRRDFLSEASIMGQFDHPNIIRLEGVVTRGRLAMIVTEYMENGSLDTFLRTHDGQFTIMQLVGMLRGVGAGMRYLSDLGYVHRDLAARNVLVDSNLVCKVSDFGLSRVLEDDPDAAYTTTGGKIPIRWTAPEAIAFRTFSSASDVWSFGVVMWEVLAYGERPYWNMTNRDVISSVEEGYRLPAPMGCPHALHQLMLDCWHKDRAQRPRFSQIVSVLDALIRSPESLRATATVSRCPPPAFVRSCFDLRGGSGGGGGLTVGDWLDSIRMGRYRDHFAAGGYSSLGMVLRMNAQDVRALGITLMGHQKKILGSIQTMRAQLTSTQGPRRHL"}, "AURKA": {"target": "T4, AURKA (Homo sapiens, UniProt O14965)", "T4 sequence (O14965 1-403)": "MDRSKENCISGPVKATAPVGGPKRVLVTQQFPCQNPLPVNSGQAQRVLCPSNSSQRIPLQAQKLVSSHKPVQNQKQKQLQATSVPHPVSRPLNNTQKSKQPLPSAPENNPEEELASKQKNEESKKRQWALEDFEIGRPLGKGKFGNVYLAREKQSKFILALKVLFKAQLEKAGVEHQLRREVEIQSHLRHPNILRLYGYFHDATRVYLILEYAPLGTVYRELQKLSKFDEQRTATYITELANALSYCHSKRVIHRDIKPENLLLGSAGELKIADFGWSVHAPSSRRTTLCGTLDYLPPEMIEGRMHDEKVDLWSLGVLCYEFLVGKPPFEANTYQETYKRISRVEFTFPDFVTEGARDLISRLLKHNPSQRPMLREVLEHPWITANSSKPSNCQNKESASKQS"}, "[1]": {"conditions": "read-out: Niraparib (MK-4827) / %Ctrl @ 10000nM"}, "[2]": {"conditions": "read-out: Olaparib / %Ctrl @ 10000nM"}, "[3]": {"conditions": "read-out: Rucaparib / %Ctrl @ 10000nM, binding competition, % of control"}, "[4]": {"conditions": "read-out: Talazoparib (BMN 673) / %Ctrl @ 10000nM"}}, "note": "Read-outs that look alike come from different tables or passages of the source.", "data": [{"smiles": "NC(=O)c1cccc2cn(-c3ccc([C@@H]4CCCNC4)cc3)nc12", "note": "[Niraparib]", "values": [{"measurement": "percent of control binding at 10 µM", "setting": "TSSK1B; [1]", "result": 65, "unit": "%"}, {"measurement": "percent of control binding at 10 µM", "setting": "PRKCQ; [1]", "result": 73, "unit": "%"}, {"measurement": "percent of control binding at 10 µM", "setting": "PHKG2; [1]", "result": 87, "unit": "%"}, {"measurement": "percent of control binding at 10 µM", "setting": "ROS1; [1]", "result": 80, "unit": "%"}, {"measurement": "percent of control binding at 10 µM", "setting": "EPHA8; [1]", "result": 80, "unit": "%"}, {"measurement": "percent of control binding at 10 µM", "setting": "AURKA; [1]", "result": 25, "unit": "%"}]}, {"smiles": "O=C(c1cc(Cc2n[nH]c(=O)c3ccccc23)ccc1F)N1CCN(C(=O)C2CC2)CC1", "note": "[Olaparib]", "values": [{"measurement": "percent of control binding at 10 µM", "setting": "TSSK1B; [2]", "result": 100, "unit": "%"}, {"measurement": "percent of control binding at 10 µM", "setting": "PRKCQ; [2]", "result": 95, "unit": "%"}, {"measurement": "percent of control binding at 10 µM", "setting": "PHKG2; [2]", "result": 100, "unit": "%"}, {"measurement": "percent of control binding at 10 µM", "setting": "ROS1; [2]", "result": 97, "unit": "%"}, {"measurement": "percent of control binding at 10 µM", "setting": "EPHA8; [2]", "result": 98, "unit": "%"}, {"measurement": "percent of control binding at 10 µM", "setting": "AURKA; [2]", "result": 91, "unit": "%"}]}, {"smiles": "CNCc1ccc(-c2[nH]c3cc(F)cc4c3c2CCNC4=O)cc1", "note": "[Rucaparib]", "values": [{"measurement": "percent of control binding at 10 µM", "setting": "TSSK1B; [3]", "result": 88, "unit": "%"}, {"measurement": "percent of control binding at 10 µM", "setting": "PRKCQ; [3]", "result": 93, "unit": "%"}, {"measurement": "percent of control binding at 10 µM", "setting": "PHKG2; [3]", "result": 70, "unit": "%"}, {"measurement": "percent of control binding at 10 µM", "setting": "ROS1; [3]", "result": 82, "unit": "%"}, {"measurement": "percent of control binding at 10 µM", "setting": "EPHA8; [3]", "result": 100, "unit": "%"}, {"measurement": "percent of control binding at 10 µM", "setting": "AURKA; [3]", "result": 75, "unit": "%"}]}, {"smiles": "Cn1ncnc1[C@H]1c2n[nH]c(=O)c3cc(F)cc(c23)N[C@@H]1c1ccc(F)cc1", "note": "[Talazoparib]", "values": [{"measurement": "percent of control binding at 10 µM", "setting": "TSSK1B; [4]", "result": 94, "unit": "%"}, {"measurement": "percent of control binding at 10 µM", "setting": "PRKCQ; [4]", "result": 89, "unit": "%"}, {"measurement": "percent of control binding at 10 µM", "setting": "PHKG2; [4]", "result": 97, "unit": "%"}, {"measurement": "percent of control binding at 10 µM", "setting": "ROS1; [4]", "result": 94, "unit": "%"}, {"measurement": "percent of control binding at 10 µM", "setting": "EPHA8; [4]", "result": 96, "unit": "%"}, {"measurement": "percent of control binding at 10 µM", "setting": "AURKA; [4]", "result": 84, "unit": "%"}]}]}
